The subject of series [1] is HCT16 p53+/+ (wild type) colon cancer cells. Kind of series: MTT assay (cytotoxicity). The class given is cell-based. The note with it: Homo sapiens, 72 hours exposure, read-out: Anticancer Activity (IC50). On the procedure: (§1) The cytotoxicity of the several representative compounds have been evaluated using MTT assay. Briefly, cells were seeded in 96-well microtiter plates (HCT16 p53+/+ (wild type), HCTp53−/− (p53 negative) colon cancer cells and MD-MBA-435 (p53 mutant) breast cancer cells at 4,000 cells/well) and allowed to attach. Cells were subsequently treated with a continuous exposure to the corresponding drug for 72 hours. A 3-(4,5-dimethylthiazol-2-yl)-2,5-diphenyltetrazolium bromide solution (at a final concentration of 0.5 mg/mL) was added to each well, and cells were incubated for 4 hours at 37° C. After removal of the medium, DMSO was added and the absorbance was read at 570 nm. All assays were done in triplicate. The IC50 was then determined for each drug from a plot of log (drug concentration) versus percentage of cell kill.
(Tetrazolium assays rely on reduction of a dye to a coloured formazan, in cell work by metabolically active cells.)

The subject of series [2] is HCTp53−/− (p53 negative) colon cancer cells. The series is described as follows: MTT assay (cytotoxicity). The class given is cell-based. The conditions noted are these: Homo sapiens, 72 hours exposure, read-out: Anticancer Activity (IC50). The procedure:
as §1

The subject of a further series is MCF7 breast cells. Kind of series: MTT assay (cytotoxicity). The note with it: Homo sapiens, read-out: Anticancer Activity (IC50). The class given is cell-based. On the procedure:
[The procedure below names another cell line; the source lists this cell line under the same test.] as §1

In series [3] the test system is MD-MBA-435 (p53 mutant) breast cancer cells. The series is described as follows: MTT assay (cytotoxicity). The conditions noted are these: Homo sapiens, 72 hours exposure, read-out: Anticancer Activity (IC50). The class given is cell-based. The procedure:
as §1

Series [4] relates to NIH 189 mouse fibroblast cells. Kind of series: MTT assay (cytotoxicity). In kind it is cell-based. The conditions noted are these: read-out: Anticancer Activity (IC50). On the procedure:
[The procedure below names another organism; the source lists this organism under the same test.] as §1

In series [5] the test system is NIH3T3 mouse fibroblast cells. Kind of series: MTT assay (cytotoxicity). The conditions noted are these: read-out: Anticancer Activity (IC50). The class given is cell-based. On the procedure:
[The procedure below names another organism; the source lists this organism under the same test.] as §1

A further series concerns HCT116p53+/+ cells. Kind of series: Cell cycle analysis by propidium iodide DNA staining. The class given is cell-based, human. The note with it: 1 μM. On the procedure: Cell cycle perturbations induced by the representative compounds were analyzed by propidium iodide DNA staining. […] At the end of each treatment time, cells were collected and washed with PBS after a gentle centrifugation at 200×g for 5 minutes. Cells were thoroughly resuspended in 0.5 mL of PBS and fixed in 70% ethanol for at least 2 hours at 4° C. Ethanol-suspended cells were then centrifuged at 200×g for 5 minutes and washed twice in PBS to remove residual ethanol. For cell cycle analysis, the pellets were suspended in 1 mL of PBS containing 0.02 mg/mL of propidiumiodide, 0.5 mg/mL of DNase-free RNase A and 0.1% of Triton X-100 and incubated at 37° C. for 30 minutes. Cell cycle profiles were obtained using a FACScan flowcytometer (Becton Dickinson, San Jose, Calif.) and data were analyzed by ModFit LT software (Verity Software House, Inc., Topsham, Me.).

A further series relates to MDA-MB-435 cells. Kind of series: Drug treatment of tumor xenografts in athymic nude mice. The class given is in vivo. The procedure: 50 male athymic nude (nu/nu) mice (Charles River Laboratories, Wilmington, USA) were used for in vivo testing. The animals were fed ad libitum and kept in air-conditioned rooms at 20±2° C. with a 12 h light-dark period. Animal care and manipulation were in agreement with the University of Southern California (USC) institutional guidelines, which are in accordance with the Guidelines for the Care and Use of Laboratory Animals.
MDA-MB-435 cells from in vitro cell culture were inoculated s.c. in both flanks of athymic nude mice (2×10^6 cells/flank) under aseptic conditions. Tumor growth was assessed by biweekly measurement of tumor diameters with a Vernier caliper (length×width). Tumor weight was calculated according to the formula: TW (mg)=tumor volume (mm^3)=d^2×D/2, where d and D are the shortest and longest diameters, respectively. Cells were allowed to grow to an average volume of 100 mm^3. Animals were then randomly assigned for control and treatment groups to receive control vehicle or CT19 (10 and 20 mg/kg, dissolved in sesame oil) via i.p. injections once a day for 5 days. Treatment of each animal was based on individual body weight. After 5-day treatment, the tumor volumes in each group were measured once a week for four weeks. Treated animals were checked daily for treatment toxicity/mortality.
Assays were set up in triplicates and the results were expressed as means±SD. Statistical analysis and P-value determination were done by two-tailed paired t test with a confidence interval of 95% for determination of the significance differences between treatment groups. P<0.05 were considered to be significant. ANOVA was used to test for significance among groups. The SAS statistical software package (SAS institute) was used for statistical analysis.
The in vivo efficacy of CT19 was evaluated in nude mice inoculated with human breast MDA-MB-435 cells. Animals were treated with a daily i.p. injections of saline (controls) and CT19 at 10 mg/kg or 20 mg/kg. After five-days of dosing, the drug treatment was discontinued and the animals were monitored […].

The test system of series [6] is panel of human cancer cell lines. Kind of series: Anticancer activity in a panel of human cancer cell lines. In kind it is cell-based. The conditions noted are these: result in words. On the procedure: Anticancer activities and cell cycle perturbations induced by a number of representative compounds have been evaluated using MTT and cell cycle analysis assays.
as §1

[7] abbreviates: 10 mg/kg or 20 mg/kg daily i.p. for five days.

Some results are limits rather than exact numbers.

As a reminder, the IC50 is the concentration that inhibits the measured activity by half. With `C=C1C(=O)O[C@@H](c2ccccc2)C1c1ccccc1` (stereo in doubt) [CT14, (4S,5R)-3-methylene-4,5-diphenyl-dihydrofuran-2(3H)-one], the IC50 in series [1] is 2 ± 1 µM; in series [2], 8 ± 1 µM; with MCF7 breast cells, 2 µM; in series [3] it was 2 ± 2 µM; in series [4], 1 µM; in [5], 2 µM. Further, the G2/M arrest result with HCT116p53+/+ cells was “approximately 75%”. The “% cells in G0/G1” value in the series on HCT116p53+/+ cells (after 12 h) stood at 11.9%; in the series with HCT116p53+/+ cells (after 24 h), 12.6%. The “% cells in G2/M” value is 75.8% with HCT116p53+/+ cells (after 12 h) and 74.5% in the series on HCT116p53+/+ cells (after 24 h). The figures for the “% cells in S” value in the series with HCT116p53+/+ cells (after 12 h) and in the series on HCT116p53+/+ cells (after 24 h) were 12.4% and 12.8%, respectively.
For the molecule `C=C(C(=O)OC)[C@H](c1ccccc1)[C@@H](O)c1ccc(C#N)cc1` (stereo in doubt) [CT21, (3S,4R)-methyl 4-(4-cyanophenyl)-4-hydroxy-2-methylene-3-phenylbutanoate], the IC50 in series [1] was found to be 2 ± 1 µM; in series [2], 13 ± 2 µM; in the series on MCF7 breast cells it was 3 µM; in [3] it was 8 ± 2 µM.
Turning to `C=C1C(=O)O[C@@H](c2ccccc2)[C@@H]1C` [CT10], the IC50 in [1] was 1 ± 1 µM; in [2], 23 ± 2 µM; in series [3] it was 5 ± 3 µM.
For the molecule `C=C1C(=O)O[C@@H](c2ccc([N+](=O)[O-])cc2)[C@H]1c1ccc(OC)cc1` [CT11], the IC50 in series [1] was determined as 2 ± 1 µM; in series [2], 9 ± 5 µM; in the series with MCF7 breast cells, 3 µM; in series [3], 2 ± 2 µM.
The like results for `C=C1C(=O)O[C@@H](c2ccc([N+](=O)[O-])cc2)[C@@H]1c1ccc(C)cc1` [CT12] were, in that order, 4 ± 1 µM, 7 ± 5 µM, 6 µM and 3 ± 2 µM.
Consider `C=C1C(=O)O[C@@H](c2ccccc2)[C@H]1c1ccccc1` [CT13, (4S,5R)-3-methylene-4,5-diphenyl-dihydrofuran-2(3H)-one], for which the IC50 came out at 3 ± 3 µM in [1], 11 ± 2 µM in series [2] and 2 ± 2 µM in series [3].
For the molecule `C=C1C(=O)O[C@@H](c2ccc([N+](=O)[O-])cc2)[C@H]1c1ccc(C)cc1` [CT15], the IC50 in series [1], in series [2] and in series [3] was above 20 µM in each case.
Regarding `C=C1C(=O)O[C@@H](c2ccc([N+](=O)[O-])cc2)[C@H]1c1ccc(Cl)cc1` [CT16], the IC50 in series [1] is 4 ± 2 µM; in series [2], 18 ± 1 µM; in the series with MCF7 breast cells it was below 1 µM; in series [3], 3 ± 2 µM.
Turning to `C=C1C(=O)O[C@@H](c2cc(OC)c(OC)c(OC)c2-c2cc(OC)c(OC)c(OC)c2)[C@H]1C` [CT19], the IC50 came out at 1 ± 1 µM in [1], 4 µM in series [2], 4 µM with MCF7 breast cells and 5 µM in [3]. For the same molecule, the Apparent toxicity result in the series with MDA-MB-435 cells (setting [7]) is “without apparent toxicity”. Further, the Tolerability result in the series on MDA-MB-435 cells (setting [7]) was “well tolerated”. For the same molecule, the “Tumor burden in breast xenografts” value with MDA-MB-435 cells (setting [7]) is recorded as “significantly reduced tumor burden”. Also, the “Tumor growth (tumor weight)” value with MDA-MB-435 cells (20 mg/kg daily i.p. for five days, monitored five weeks, p<0.05) is “significantly reduced tumor growth”.
As to `COc1cc(-c2c(C3OC(=O)C(C)=C3C)cc(OC)c(OC)c2OC)cc(OC)c1OC` (stereo not shown) [CT20], the IC50 in series [1] is 3 µM; in [2], above 20 µM; in the series on MCF7 breast cells, above 20 µM; in series [3] it was above 20 µM.
As to `C=C(C(=O)OC)[C@@H](c1ccccc1)[C@H](O)c1ccc([N+](=O)[O-])cc1` [CT22], the IC50 in series [1] was 1 ± 1 µM; in series [2], 12 ± 4 µM; in the series with MCF7 breast cells, 3 µM; in series [3], 7 ± 5 µM; in series [4], 3 µM; in series [5], 3.5 µM.
Regarding `COC(=O)/C(=C/c1ccccc1)CS(=O)(=O)c1ccc(C)cc1` [CT23, (Z)-methyl 3-phenyl-2-(tosylmethyl)acrylate], the IC50 in series [1] is 2 ± 2 µM; in series [2], 5 µM; in the series with MCF7 breast cells, 15 µM; in series [3], 6 ± 3 µM. Also, the “Anticancer activity in a panel of human cancer cell lines” value in [6] is reported as “potent anticancer activity at low micromolar concentration”.

For the origin of these results see patent publication US20070203224A1, “SMALL-MOLECULES FOR TREATING CANCER AND ABNORMAL CELL PROLIFERATION DISORDERS” (University of Southern California, priority 2006, published 2007).
